Measurements published in publication PMC12750995, “Conformational Dynamics in the Cell Membrane Interactions of Bispecific Targeted Degrader Therapeutics” (Journal of Medicinal Chemistry, 2025).

Assays:
in vitro = conditions: human, pH 7.4, n = 3
Protocol: Binding to the cell homogenate was determined at 0.1 μM for all compounds. A Rapid Equilibrium Dialysis device (Thermo Fisher, Waltham, Massachusetts) was used to dialyze the samples by adding 200 μL of the compound-spiked cell homogenate to one chamber and 350 μL of HBSS/HEPES to the other chamber. The cassette was incubated on an Eppendorf ThermoMixer C (Hamburg, Germany) at 900 rpm for 4 h at 37 °C.

[1] = Caco-2 A-B passive permeability with preincubation, transporter-inhibited; assay type: in vitro ADME; conditions: human, Caco-2, with 50 μM quinidine, 30 μM benzbromarone, 20 μM sulfasalazine; Figure 3A grouping; read-out: Passive Caco-2 cell permeability group (high, moderate or low)
Protocol: (§1) Transepithelial transport of the compounds through a Caco-2 monolayer (ATCC, HTB-37) was determined in 14–18 days old monolayers in Costar 24-well cell culture cluster plates (polycarbonate membrane, 0.4 μm pore size). Chamber volumes were 200 and 800 μL on the apical and basolateral sides of the cell monolayers, respectively, and all incubations were performed with prewarmed buffers in an orbital shaking incubator at 480 rpm and 37 °C. Prior to the assay, cells were washed with HBSS supplemented with 25 mM HEPES (HBSS-HEPES), pH 7.4, to remove the culture medium. After 15 min of equilibration, the transepithelial electrical resistance (TEER) was determined to assess acceptance of the cell plates into the assay. A second measurement and a lucifer yellow leakage determination was carried out after performing all the transport experiments to monitor integrity of the cell monolayers throughout the study.
(§2) Before the permeability study, to minimize nonspecific binding of PROTACs to the cells and plates, the cells were preincubated with 10 μM compound solution on the apical (donor) side for 1 h, analogous to Muschong et al. Then, cells were washed twice with HBSS-MES pH 6.5 containing 1% BSA. Then, permeability in the absorptive direction (A–B, apical-to-basolateral) was studied over 120 min at a 10 μM test compound concentration. The compound solutions were freshly prepared from DMSO stock solutions diluted into HBSS supplemented with 25 mM MES, pH 6.5, containing efflux inhibitors (50 μM quinidine, 30 μM benzbromarone, and 20 μM sulfasalazine); the final solvent concentration was always 0.5%.
(§3) Samples from the donor side (10 μL) were drawn immediately after the addition of the test compound and after 45 and 120 min. The donor samples were diluted 1:10 in HBSS. From the receiver compartment, an amount of 100 μL was withdrawn after 45 and 120 min and replaced with fresh HBSS-HEPES, pH 7.4.
(§4) Upon completion of the study, all samples were quenched with 300 μL of acetonitrile and analyzed subsequently using UPLC/MS/MS. The permeability was determined as the appearance rate of the compound on the receiver side, in relation to donor concentration, according to eq 4 Papp=dQ/[(dt)(T)]×A/D where dQ/[(dt)(T)] is the slope of the permeation profile across the Caco-2 cell monolayers, A is the surface area of the Transwell insert (0.33 cm^2), and D is the concentration on the donor side. Following the permeability experiments, recovery from the donor and receiver compartments was calculated using eq 5 recovery(%)(0−120min)=CR120×VR+CR45×0.1+CD45×0.01+CD120×VD/D0×VD×100

HEK293 cell homogenate = test: Equilibrium dialysis binding to HEK293 cell homogenate (fraction unbound); assay type: in vitro ADME; conditions: for cell homogenate binding (bound-to-unbound concentration ratio) compared with matched compound: Figure 6G, 11 vs 9, 8 vs 14, 9 vs 16; for fold higher bound-to-unbound concentration ratio than compound 9: comparator compound 9; for fu,hom mass balance: equilibrium dialysis, 0.1 μM
Protocol: (§5) The unbound fraction of a selected series of PROTACs was determined through equilibrium dialysis against the cell homogenate. HEK293 cells (ATCC, Manassas, VA) were grown in Dulbecco’s modified Eagle’s medium (DMEM) supplemented with 10% fetal bovine serum (FBS) at 37 °C, 95% relative humidity, and 5% CO2. Cell pellets were harvested using 0.05% trypsin and centrifuged at 260g for 5 min. The cells were resuspended in Dulbecco’s phosphate buffer (DPBS), counted using a Luna II cell counter (Logos Biosystems, Anyang, South Korea) and centrifuged at 260g. The supernatant was discarded, and cell pellets were stored at −80 °C prior to cell homogenate preparation. On the day of the experiment, cell pellets were thawed and resuspended in Hank’s balanced salt solution (HBSS) buffered with 20 mM HEPES (pH 7.4) to a concentration of 10 × 10^6 cells/mL. The cell suspension was homogenized using ultrasonication for 10 s at 20% intensity while kept on ice.
(§6) Compound stability was assessed by adding the compound-spiked cell homogenate to an empty well in the dialysis cassette. At the end of the experiment, these concentrations were compared to identical control samples stored at 4 °C. Mass balance was calculated at the end of each experiment. Further, in all wells, two control compounds (atorvastatin and lopinavir) were included to ensure that the assay plate was functional. All compounds were tested in triplicate in one experiment. Compound 2 was only detected on the cell homogenate side, and thus, the concentration on the buffer side was set to half of the lower limit of quantification to allow calculation of an approximate cell homogenate binding.
(§7) Final samples were matrix matched by taking 1 part sample and 1 part blank cell homogenate or buffer. Proteins were precipitated using 1 part matrix matched sample and 3 parts acetonitrile supplemented with 0.3% formic acid (FA) and 5 nM verapamil (internal standard), and this was diluted 1:1 with Milli-Q prior to centrifugation at 2500g for 20 min. Compound concentrations in the supernatant were quantified using a reversed phase system with a Waters Acquity UPLC HSS T3 column (50 × 2.1 mm, 1.8 μm) in an Aquity UPLC connected to a Xevo TQ-XS mass spectrometer (Waters Corp., Milford, MA). The chromatographic run was done using solvent A (0.1% FA in Milli-Q) and solvent B (0.1% FA in acetonitrile Optima LC/MS grade (Fisher Scientific)) with isocratic conditions between 0 and 0.3 min (99.8% solvent A and 0.2% solvent B), a linear gradient between 0.3 and 1.3 min (from 0.2% to 95% solvent B), isocratic conditions between 1.3 and 1.8 min (95% solvent B), and equilibration back to start conditions between 1.8 and 2.3 min. Mass transitions, cone voltages, and collision energies can be found in Table S4.

[2] = as above; assay type: in vitro ADME; conditions: human, pH 7.4; fraction unbound in HEK293 cell homogenate, 10 × 10^6 cells/mL, 0.1 μM, 4 h, 37 °C; read-out: fu,hom
Protocol: as §5, §6, §7

Caco-2 monolayer = test: Caco-2 A-B passive permeability with preincubation, transporter-inhibited; assay type: in vitro ADME; conditions: recovery from donor and receiver compartments, 0-120 min
Protocol: as §1, §2, §3, §4

Compound | fraction unbound at 4 h, 0.1 μM (in vitro; HEK293 cell homogenate) | Papp A→B at 120 min, 10 μM [1] | further results
Cc1ncsc1-c1ccc(CNC(=O)[C@H]2C[C@H](O)CN2C(=O)[C@@H](NC(=O)COCCOCCOCCNC(=O)C[C@@H]2N=C(c3ccc(Cl)cc3)c3c(sc(C)c3C)-n3c(C)nnc32)C(C)(C)C)cc1 [Compound 6] | 0.242 | 0.5 to 10 ×10⁻⁶ cm/s | 
Cc1sc2c(c1C)C(c1ccc(Cl)cc1)=N[C@@H](CC(=O)N1CCC(Oc3cccc4c3C(=O)N(C3CCC(=O)NC3=O)C4=O)C1)c1nnc(C)n1-2 (stereo partly drawn) [Compound 17, 4-((1-(2-((6S)-4-(4-Chlorophenyl)-2,3,9-trimethyl-6H-thieno[3,2-f][1,2,4]triazolo[4,3-a][1,4]diazepin-6-yl)acetyl)pyrrolidin-3-yl)oxy)-2-(2,6-dioxopiperidin-3-yl)isoindoline-1,3-dione] | 0.357 |  | 
Cc1sc2c(c1C)C(c1ccc(Cl)cc1)=N[C@@H](CC(=O)NCCCNc1cccc3c1C(=O)N(C1CCC(=O)NC1=O)C3=O)c1nnc(C)n1-2 (stereo partly drawn) [Compound 13, 2-((6S)-4-(4-Chlorophenyl)-2,3,9-trimethyl-6H-thieno[3,2-f][1,2,4]triazolo[4,3-a][1,4]diazepin-6-yl)-N-(3-((2-(2,6-dioxopiperidin-3-yl)-1,3-dioxoisoindolin-4-yl)amino)propyl)acetamide] |  |  | fraction unbound at 4 h, 0.1 μM (in vitro; tissue homogenate): 0.228
Cc1sc2c(c1C)C(c1ccc(Cl)cc1)=N[C@@H](CC(=O)N1CCN(c3cccc4c3C(=O)N(C3CCC(=O)NC3=O)C4=O)CC1)c1nnc(C)n1-2 (stereo partly drawn) [Compound 15, 4-(4-(2-((6S)-4-(4-Chlorophenyl)-2,3,9-trimethyl-6H-thieno[3,2-f][1,2,4]triazolo[4,3-a][1,4]diazepin-6-yl)acetyl)piperazin-1-yl)-2-(2,6-dioxopiperidin-3-yl)isoindoline-1,3-dione] | 0.182 |  | 
Cc1ncsc1-c1ccc(CNC(=O)[C@@H]2C[C@@H](O)CN2C(=O)[C@@H](NC(=O)CCCCNC(=O)C[C@@H]2N=C(c3ccc(Cl)cc3)c3c(sc(C)c3C)-n3c(C)nnc32)C(C)(C)C)cc1 [Compound 11, (2S,4R)-1-((2S)-2-(5-(2-((6S)-4-(4-Chlorophenyl)-2,3,9-trimethyl-6H-thieno[3,2-f][1,2,4]triazolo[4,3-a][1,4]diazepin-6-yl)acetamido)pentanamido)-3,3-dimethylbutanoyl)-4-hydroxy-N-(4-(4-methylthiazol-5-yl)benzyl)pyrrolidine-2-carboxamide] | 0.139 |  | cell homogenate binding (bound-to-unbound concentration ratio) compared with matched compound (HEK293 cell homogenate): higher cell homogenate binding than the CRBN-binding 9; fold higher bound-to-unbound concentration ratio than compound 9 (HEK293 cell homogenate; HEK293 cell homogenate): 3 fold
Cc1sc2c(c1C)C(c1ccc(Cl)cc1)=N[C@@H](CC(=O)NCCCCNC(=O)COc1cccc3c1C(=O)N(C1CCC(=O)NC1=O)C3=O)c1nnc(C)n1-2 (stereo partly shown) [Compound 9] | 0.411 | < 0.5 ×10⁻⁶ cm/s | cell homogenate binding (bound-to-unbound concentration ratio) compared with matched compound (HEK293 cell homogenate): higher cell homogenate binding than 16
COc1cc(-c2cn(C)c(=O)c3cnccc23)cc(OC)c1CN(C)CC(=O)NCCOCCOCCNc1cccc2c1C(=O)N(C1CCC(=O)NC1=O)C2=O (stereo not shown) [Compound 10] |  | < 0.5 ×10⁻⁶ cm/s | fraction unbound at 4 h, 0.1 μM (in vitro; tissue homogenate): 0.557; fold lower bound-to-unbound concentration ratio (membrane binding) than compound 7 (HEK293 cell homogenate; HEK293 cell homogenate, comparator compound 7): 5.3 fold
COc1cc(-c2cn(C)c(=O)c3cnccc23)cc(OC)c1CN(C)CC(=O)NCCCCCCCCNc1cccc2c1C(=O)N(C1CCC(=O)NC1=O)C2=O (stereo not shown) [Compound 7] | 0.19 | > 10 ×10⁻⁶ cm/s | 
CC(=O)c1c(C)c2cnc(Nc3ccc(N4CCN(CCOCCOCCOCCNC(=O)COc5cccc6c5C(=O)N([C@H]5CCC(=O)NC5=O)C6=O)CC4)cn3)nc2n(C2CCCC2)c1=O [Compound 5] |  | 0.5 to 10 ×10⁻⁶ cm/s | fu,hom mass balance (HEK293 cell homogenate; HEK293 cell homogenate): 76%; fraction unbound at 4 h, 0.1 μM [2]: 0.396; Papp Recovery (%) (0-120 min) (Caco-2 monolayer): 84%
COc1cc2c(Oc3ccc(NC(=O)C4(C(=O)Nc5ccc(F)cc5)CC4)cc3F)ccnc2cc1OCCCCOCCCCOCC(=O)NC(C(=O)N1CC(O)CC1C(=O)NCc1ccc(-c2scnc2C)cc1)C(C)(C)C (stereo not shown) [Compound 1] |  | < 0.5 ×10⁻⁶ cm/s | fu,hom mass balance (HEK293 cell homogenate; HEK293 cell homogenate): 118%; fraction unbound at 4 h, 0.1 μM [2]: 0.011; Papp Recovery (%) (0-120 min) (Caco-2 monolayer): 39%
Cc1sc2c(c1C)C(c1ccc(Cl)cc1)=N[C@@H](CC(=O)NCCCCCCCCNC(=O)COc1cccc3c1C(=O)N(C1CCC(=O)NC1=O)C3=O)c1nnc(C)n1-2 (stereo partly shown) [Compound 8] | 0.133 | > 10 ×10⁻⁶ cm/s | cell homogenate binding (bound-to-unbound concentration ratio) compared with matched compound (HEK293 cell homogenate): higher experimental binding than 14; fold higher bound-to-unbound concentration ratio than compound 9 (HEK293 cell homogenate; HEK293 cell homogenate): 4.6 fold
Cc1sc2c(c1C)C(c1ccc(Cl)cc1)=N[C@@H](CC(=O)NC[C@@H]1CCC[C@H](CNc3cccc4c3C(=O)N(C3CCC(=O)NC3=O)C4=O)C1)c1nnc(C)n1-2 (mixture of isomers) [Compound 12, 2-((6S)-4-(4-Chlorophenyl)-2,3,9-trimethyl-6H-thieno[3,2-f][1,2,4]triazolo[4,3-a][1,4]diazepin-6-yl)-N-(((1RS,3SR)-3-(((2-(2,6-dioxopiperidin-3-yl)-1,3-dioxoisoindolin-4-yl)amino)methyl)cyclohexyl)methyl)acetamide] | 0.007 |  | 
Cc1sc2c(c1C)C(c1ccc(Cl)cc1)=N[C@@H](CC(=O)NCCOCCNC(=O)COc1cccc3c1C(=O)N(C1CCC(=O)NC1=O)C3=O)c1nnc(C)n1-2 (stereo partly drawn) [Compound 16, 2-((6S)-4-(4-Chlorophenyl)-2,3,9-trimethyl-6H-thieno[3,2-f][1,2,4]triazolo[4,3-a][1,4]diazepin-6-yl)-N-(2-(2-(2-((2-(2,6-dioxopiperidin-3-yl)-1,3-dioxoisoindolin-4-yl)oxy)acetamido)ethoxy)ethyl)acetamide] | 0.5 |  | 
Cc1sc2c(c1C)C(c1ccc(Cl)cc1)=N[C@@H](CC(=O)NCCOCCOCCNC(=O)COc1cccc3c1C(=O)N(C1CCC(=O)NC1=O)C3=O)c1nnc(C)n1-2 (stereo partly drawn) [Compound 14, 2-((6S)-4-(4-Chlorophenyl)-2,3,9-trimethyl-6H-thieno[3,2-f][1,2,4]triazolo[4,3-a][1,4]diazepin-6-yl)-N-(2-(2-(2-(2-((2-(2,6-dioxopiperidin-3-yl)-1,3-dioxoisoindolin-4-yl)oxy)acetamido)ethoxy)ethoxy)ethyl)acetamide] | 0.432 |  | 
